Reference: patent US6150335A, “Tic-containing opioid dipeptide derivatives useful as analgesics” (Astra AB, priority 1996, dated 2000)
Where a SMILES comes first, the peptide text is derived from it. [ ]: non-standard residue; d: D form. The star is where a group is joined. Tic = O=C(O)[C@@H]1Cc2ccccc2CN1; NHPhenethyl = c1ccc(CCN*)cc1

Tests used:
[1] = system: guinea pig ileum (GPI); experiment: Guinea pig ileum (GPI) bioassay: inhibition of electrically evoked contractions; type: cell-based; conditions: normalized with [Leu5]enkephalin standard, effect primarily μ-mediated
Protocol: (§1) Bioassays based on inhibition of electrically evoked contractions of the mouse vas deferens (MVD) and of the guinea pig ileum (GPI) were performed. In the GPI assay the opioid effect is primarily mediated by μ opioid receptors, whereas in the MVD assay the inhibition of the contractions is mostly due to interaction with δ opioid receptors.
(§2) The GPI and MVD bioassays were carried out as reported in P. W. Schiller et al., Biochem. Biophys. Res. Commun. 85, 1332-1338 (1978) and J. DiMaio et al., J. Med. Chem. 25, 1432-1438 (1982). A log-dose response curve was determined with [Leu^5 ]enkephalin as standard for each ileum and vas preparation, and IC50 values of the compounds being tested were normalized according to A. A. Waterfield et al., Eur. J. Pharmacol. 58, 11-18 (1979).

[2] = system: mouse vas deferens (MVD); experiment: Mouse vas deferens (MVD) bioassay: inhibition of electrically evoked contractions; type: cell-based; conditions: for IC50: inhibition of electrically evoked contractions, normalized with [Leu5]enkephalin standard, effect mostly δ-mediated; for GPI/MVD IC50 ratio: ratio of GPI IC50 to MVD IC50
Protocol: as §1, §2

[3] = target: T1, μ opioid receptor (Rattus norvegicus, UniProt P33535); experiment: μ opioid receptor binding assay, displacement of [3H]DAMGO from rat brain membranes; conditions: [3H]DAMGO 0.7 nM, Cheng-Prusoff
T1 construct: Male Sprague-Dawley rats (300-350 g) from the Canadian Breeding Laboratories were decapitated and after removal of the cerebellum the brains were homogenized; from tissue; host or cells: rat brain (without cerebellum) membranes, male Sprague-Dawley
Protocol: (§3) μ and δ opioid receptor binding constants (Ki^μ,Ki^δ) of the compounds were determrined by displacement of relatively selective μ and δ radioligands from binding sites in rat brain membrane preparations calculated from the measured IC50 values on the basis of the equation by Cheng and Prusoff, (Y. C. Cheng and W. H. Prusoff Biochem. Pharmnacol. 22, 3099-3102 (1973)).
(§4) The μ-, δ- and κ-opioid receptor affinities of all new analogs were determined in binding assays based on displacement of μ-, δ- and κ-selective radioligands from rat brain membrane binding sites. In the case of κ-ligands guinea pig brain homogenates were used, since the relative proportion of κ-binding sites is higher in guinea pig brain than in rat brain. The experimental procedure being used in our laboratory represents a modified version of the binding assay described by Pasternak et al. (Mol. Pharnacol. 11, 340-351 (1975)). Male Sprague-Dawley rats (300-350 g) from the Canadian Breeding Laboratories were decapitated and after removal of the cerebellum the brains were homogenized in 30 volumes of ice-cold standard buffer (50 mnM Tris HCl , pH 7.7). After centrifugation at 30,000×g for 30 min at 4° C. the membranes were reconstituted in the original volume of standard buffer and incubated for 30 min at 37° C. (to release bound endogenous ligands). Subsequent centrifugation and resuspension of the pellet in the initial volume of fresh standard buffer yielded the final membrane suspension. Aliquots (2 ml) of the membrane preparations were incubated for 1-2 h at 25° C. with 1 ml standard buffer containing the peptide to be tested and one of the following radioligands at the final concentration indicated: [^3 H]DAMGO, μ-selective, 0.7 nM; [^3 H]DSLET, μ-selective, 1.0 nM; and [^3 H]U69,563, κ-selective, 0.5 nM. The incubation was terminated by filtration through Whatman GF/B filters under vacuum at 4° C. Following two washings with 5 ml portions of ice-cold standard buffer the filters were transferred to scintillation vials and treated with 1 ml Protosol (New England Nuclear) for 30 min prior to addition of 0.5 ml acetic acid and 10 ml Aquasol (New England Nuclear). After shaking for 30 min the vials were counted at an efficiency of 40-45%. All experiments were performed in duplicate and repeated at least three times. Specific binding of each of the three radioligands was defined by performing incubations in the presence of cold DAMGO, DSLET and U69,563, respectively, at a concentration of 1 micromolar. Values of half-maximal inhibition (IC50) of specific binding were obtained graphically from semilogarithmic plots. From the measured IC50-values, binding inhibition constants (Ki) were calculated based on Cheng and Prusoff's equation (Biochem. Pharmacol. 22, 3099-3102 (1973)). Ratios of the Ki -values determined in the μ-, δ- and κ-representative binding assays are a measure of the receptor selectivity of the compound under investigation (e.g. Ki^μ /Ki^μ indicates the selectivity for δ-receptors versus μ-receptors).

[4] = target: T2, δ opioid receptor (Rattus norvegicus, UniProt P33533); experiment: δ opioid receptor binding assay, displacement of [3H]DSLET from rat brain membranes; conditions: for Ki: rat brain membranes, [3H]DSLET 1.0 nM, Cheng-Prusoff; for Ki^μ/Ki^δ: δ versus μ receptor selectivity
T2 construct: Male Sprague-Dawley rats (300-350 g) from the Canadian Breeding Laboratories were decapitated and after removal of the cerebellum the brains were homogenized; from tissue; host or cells: rat brain (without cerebellum) membranes, male Sprague-Dawley
Protocol: as §3
as §4, with “[…];” for “[^3 H]DSLET, μ-selective, 1.0 nM;”

[5] = system: δ opioid receptor; conditions: reported at 23rd European Peptide Symposium 1994; cited from earlier work
[6] = system: mice; conditions: S. D. Comer et al. 1993; cited from earlier work
[7] = system: mouse tail flick test; conditions: J. Kamei et al. 1995; cited from earlier work

T2 sequence (P33533 whole entry): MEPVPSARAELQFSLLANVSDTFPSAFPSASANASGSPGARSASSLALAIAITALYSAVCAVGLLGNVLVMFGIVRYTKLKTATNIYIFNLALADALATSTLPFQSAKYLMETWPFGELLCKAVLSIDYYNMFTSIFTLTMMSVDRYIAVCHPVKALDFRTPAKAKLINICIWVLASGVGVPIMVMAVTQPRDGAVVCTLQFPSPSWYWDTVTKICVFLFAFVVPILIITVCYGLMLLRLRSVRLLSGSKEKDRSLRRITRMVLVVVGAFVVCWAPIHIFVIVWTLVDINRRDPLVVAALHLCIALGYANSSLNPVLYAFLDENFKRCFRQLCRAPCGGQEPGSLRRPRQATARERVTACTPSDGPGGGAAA
T1 sequence (P33535 whole entry): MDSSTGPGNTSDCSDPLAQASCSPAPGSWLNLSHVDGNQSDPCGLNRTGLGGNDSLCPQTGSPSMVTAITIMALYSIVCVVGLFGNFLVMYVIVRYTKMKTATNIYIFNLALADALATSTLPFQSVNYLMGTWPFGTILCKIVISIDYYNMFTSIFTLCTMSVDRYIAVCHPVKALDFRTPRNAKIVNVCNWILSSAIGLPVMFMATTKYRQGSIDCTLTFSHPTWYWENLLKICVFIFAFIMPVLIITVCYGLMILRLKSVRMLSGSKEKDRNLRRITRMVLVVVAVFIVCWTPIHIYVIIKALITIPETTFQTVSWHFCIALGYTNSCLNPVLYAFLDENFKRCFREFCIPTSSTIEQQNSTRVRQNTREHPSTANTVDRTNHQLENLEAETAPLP

| Compound | IC50 [1] [nM] | IC50 [2] [nM] | GPI/MVD IC50 ratio [2] | Ki [3] [nM] | Ki [4] [nM] | Ki^μ/Ki^δ [4] | δ agonist / antagonist properties [5] | toxicity in mice [6] | GPI IC50 [1] | antinociceptive effect [7] |
| --- | --- | --- | --- | --- | --- | --- | --- | --- | --- | --- |
| N[C@@H](Cc1ccc(O)cc1)C(=O)N1Cc2ccccc2C[C@H]1C(=O)NCCc1ccccc1 [H-Tyr-Tic-NH--CH2 --CH2 --Ph, reference compound] (H-Tyr-[Tic]-NHPhenethyl) | 2120 | 82 ± 10 | 25.9 | 69.1 | 5.22 ± 0.02 | 13.2 | full, but only moderately potent δ agonist | – | – | – |
| C=CCN1C[C@H](C)N([C@H](c2ccc(C(=O)N(CC)CC)cc2)c2cccc(O)c2)C[C@H]1C (racemic) [BW 373U86, (±)-4-(a-R*)-a-(2S*,5R*)-4-allyl-2,5-dimethyl-1-piperazinyl)-3-hydroxybenzyl)-N,N-diethylbenzamide] | – | – | – | – | – | – | – | produced significant toxicity, manifested behaviorally as convulsions and barrel rolling | – | – |
| NC(Cc1ccc(O)cc1)C(=O)N1Cc2ccccc2CC1C(=O)NCC(c1ccccc1)c1ccccc1 (stereo not drawn) [Example 1, H-Tyr-Tic-NH--CH2 --CH--(Ph)2] | 3630 ± 470 | 3.77 ± 1.05 | 963 | 28.8 ± 4.2 | 0.981 ± 0.038 | 29.4 | – | – | – | – |
| N[C@@H](Cc1ccc(O)cc1)C(=O)N1Cc2ccccc2C[C@H]1C(=O)NCC(c1ccc([N+](=O)[O-])cc1)c1ccc([N+](=O)[O-])cc1 [Example 24] | 5200 ± 1100 | 8.91 ± 1.53 | 584 | 635 ± 109 | 7.17 ± 0.24 | 88.6 | – | – | – | – |
| N[C@@H](Cc1ccc(O)cc1)C(=O)N1Cc2ccccc2C[C@H]1C(=O)N[C@@H]1CCc2ccccc2C1 [Example 20, H-Tyr-Tic-2-R-At (At = aminotetralin)] | – | 36.3 ± 3.58 | – | 26.3 ± 2.3 | 1.72 ± 0.17 | 15.3 | – | – | partial | – |
| CN1CC[C@]2(c3cccc(O)c3)Cc3nc4ccccc4cc3C[C@H]2C1 [TAN-67, 2-methyl-4α,α-(3-hydroxyphenyl)-1,2,3,4,4a,5,12,12aα-octahydroquinolino[2,3,3-g]isoquinoline] | – | – | – | – | – | – | – | – | – | no significant antinociceptive effect |
| Cc1ccccc1CCNC(=O)[C@@H]1Cc2ccccc2CN1C(=O)[C@@H](N)Cc1ccc(O)cc1 [Example 6] | 759 ± 152 | 10.1 ± 1.2 | 75.1 | 38.7 ± 8.9 | 1.75 ± 0.1 | 22.1 | – | – | – | – |
